Results as given in patent US10316371B2, “Screening methods for identifying specific Staphylococcus aureus inhibitors” (TRANA DISCOVERY, INC., priority 2011, dated 2019).
In brackets after ≈: the same amount, converted by molar mass. Read-outs that look alike come from different tables or passages of the source.

How the values were obtained:
Mammalian Cell Toxicity [1] = format: cell-based; details: human, MRC5 cells
S. pneumoniae 149389 = test: MIC; format: cell-based; details: Streptococcus pneumoniae; S. pneumoniae 149389; read-out: MIC
Method: (§1) The compounds were re-tested against other bacteria, including Staphylococcus epidermidis (ATCC 35984), Staphylococcus epidermidis (MRSE), E. faecium 134529, E. faecium 145494, […], E. faecium 161651, S. pneumoniae 49619, and S. pneumoniae 149389.
(§2) A series of compounds were evaluated for their activity against drug resistant S. aureus, including MSSA and MRSA strains.

E. faecium 134529 = test: MIC; format: cell-based; details: Enterococcus faecium; E. faecium 134529; read-out: MIC
Method: as §1, §2

E. faecalis 161651 = test: MIC; format: cell-based; details: Enterococcus faecalis; E. faecalis 161651; read-out: MIC
Method: as §1, §2

E. faecium 145494 = test: MIC; format: cell-based; details: Enterococcus faecium; E. faecium 145494; read-out: MIC
Method: as §1, §2

S. epidermidis MRSE 01 = test: MIC; format: cell-based; details: Staphylococcus epidermidis; S. epidermidis MRSE 01; read-out: MIC
Method: as §1, §2

S. epidermidis 35984 = test: MIC; format: cell-based; details: Staphylococcus epidermidis; S. epidermidis 35984; read-out: MIC
Method: as §1, §2

E. faecalis 29212 = test: MIC; format: cell-based; details: Enterococcus faecalis; E. faecalis 29212; read-out: MIC
Method: as §1, §2

S. pneumoniae 49619 = test: MIC; format: cell-based; details: Streptococcus pneumoniae; S. pneumoniae 49619; read-out: MIC
Method: as §1, §2

K. pneumoniae UMM = test: MIC; format: cell-based; details: Klebsiella pneumoniae; K. pneumoniae UMM; read-out: MIC
[2] = tested on: S. aureus specific Arg ASL (anticodon stem loop) RNA oligomer interaction with programmed ribosomes; test: Fluorescence polarization assay of Arg ASL / programmed ribosome complex (HTS and dose response); format: binding, S. aureus Arg ASL; E. coli 70S ribosomes; details: 6 pt dose response, fluorescence polarization after 4 hours at 25° C., corrected for auto-fluorescence
Excerpt: The assay requires the following materials: • Ribosomes—isolated from E. coli or S. aureus • fMet tRNA (Sigma or Chemical Block, Moscow) • mRNA (including the S-D sequence, the “box” sequence, the codon for methionine, and the codon for arginine that is specific for S. aureus, AGA, optionally with additional base pairs to the left of the S-D sequence and/or to the right of the codon for arginine) • Fluorescently labeled Arg ASL oliogomer • Buffer—HAM20,β • 384 well high binding micro titer plates (Matrix Technologies #4319, sold by Fischer Scientific as cat #50823855), or other appropriate plates for use in high throughput screening • Filtration (Sartorius Stedium 100 Kdalton VC 1042) or centrifugation for complex purification • EDTA—negative control (binding antagonist) • Neomycin—A-site binding enhancer (binding agonist)
A ribosome complex was prepared using the above materials and then purified prior to use in the assay. The prepared complex can be stored in concentrated form at −80° C. The complexes were diluted in buffer and dispensed onto plates. […] Fluorescence polarization was measured at approximately 4 hours after dispensing onto the micro-titer plates.
ASL^Arg was first heated for 2 min at 90° C. in water, after addition of 1/10 V of 10× buffer incubation continued on ice for at least 10 min. Prior to complex formation 70S ribosomes and tRNA were reactivated in buffer for 5 min at 45° C. followed by 10 min at 37° C.; mRNA was heated in buffer at 37° C. for 5 min. • (1000 μl×(2 μM E. coli 70S ribosomes+10 μM mRNA-Arg+4 μM tRNA^fmet)/HAM20,β→30 min @ 37° C.,+1000 μl×(0.2 μM neomycin+[…]))→20 min @ 37° C., overnight on ice • Final complex: (2000 pm P+2000 pm ASL)/2 ml=1 μM P+1 μM ASL HAM20,β:
Preparation of Complexes: The purified complex was diluted in ice cold HAM20,β such that the total fluorescence was approximately 2,000,000 units per 5 μL.
20 μl of the diluted complex was added to all 384 well plates (except for blank wells, which received 20 μL of HAM20 only, without complex) using Multidrop dispenser after which the plates were incubated at 25° C. for 4 hours (target 4.5 hours for middle of batch). Plates were then analyzed for fluorescence polarization in Analyst HT fluorescence plate reader and the following instrument settings:
The parallel and perpendicular fluorescence values of experimental wells were automatically corrected for the corresponding values obtained from the blank wells. The fluorescence polarization was calculated as following: P=(I−Ip)/(I+Ip), wherein Ip—is perpendicular fluorescence and I—is parallel fluorescence.
The percent of effect of experimental compounds was calculated as following: %-Inh=(P0−Pc)/(P0−P100)*100, wherein P0—is average polarization in 0%—inhibition control wells, P100—is average polarization in 100%—inhibition control wells, and Pc—is polarization in compound well.
The 3 sigma HTS hits were cherry picked and retested in 6 pt dose response format, using 3× serial dilution and the top nominal concentration of 100 uM.
The compounds were serially diluted in 10% DMSO and plated into 384 well plates (in a volume of 5 μL) to achieve the nominal final concentration raging from 100 μM to 0.4 μM. The plates received 20 μl of the diluted complex following incubation at 25° C. for 4 hours. Plates were then analyzed for fluorescence polarization as described above (see HTS section).
In parallel, the compounds were tested for auto-fluorescence. To this end, the compounds were plated (using the same dilution protocol) into 384 well plates. The plates received 20 μL of the HAM20 assay buffer only (without complex). The plates were incubated for 4 hrs and then were analyzed for fluorescence polarization as described above.

K. pneumoniae 700603 = test: MIC; format: cell-based; details: Klebsiella pneumoniae; K. pneumoniae 700603; read-out: MIC
E. coli ESBL 4 = test: MIC; format: cell-based; details: Escherichia coli, ESBL4; E. coli ESBL 4; read-out: MIC
[3] = tested on: SA 33591 (Staphylococcus aureus, Methicillin Resistant (ATCC 33591)); test: MIC; format: cell-based; details: ATCC33591, SA 33591, read-out: MIC
Method: (§3) The strains included Staphylococcus aureus, Methicillin Resistant (ATCC 33591), Methicillin-Resistant Staphylococcus aureus USA300, Staphylococcus aureus 158, Staphylococcus aureus 22, Staphylococcus aureus 2, Staphylococcus aureus (ATCC 29213), and Staphylococcus aureus 182.
as §2

[4] = tested on: SA 22 (Staphylococcus aureus 22); test: MIC; format: cell-based; details: SA 22, read-out: MIC
Method: as §3, §2

[5] = tested on: SA 2 (Staphylococcus aureus 2); test: MIC; format: cell-based; details: SA 2, read-out: MIC
Method: as §3, §2

[6] = tested on: SA USA 300 (Methicillin-Resistant Staphylococcus aureus USA300); test: MIC; format: cell-based; details: SA USA 300, read-out: MIC
Method: as §3, §2

[7] = tested on: SA 182 (Staphylococcus aureus 182); test: MIC; format: cell-based; details: SA 182, read-out: MIC
Method: as §3, §2

[8] = tested on: SA 158 (Staphylococcus aureus 158); test: MIC; format: cell-based; details: SA 158, read-out: MIC
Method: as §3, §2

[9] = tested on: SA 29213 (Staphylococcus aureus (ATCC 29213)); test: MIC; format: cell-based; details: ATCC29213, SA 29213, read-out: MIC
Method: as §3, §2

E. coli 25922 = test: MIC; format: cell-based; details: Escherichia coli; E. coli 25922; read-out: MIC
Mammalian Cell Toxicity [10] = format: cell-based; details: mouse, 3T3 cells

In the case of Oc1ccccc1N=Cc1c(O)c(Br)cc2oc3c(c12)CCCC3 [Compound 136, 3-bromo-1-{[(2-hydroxyphenyl)imino]methyl}-6,7,8,9-tetrahydrodibenzo[b,d]furan-2-ol], the CC50 (Mammalian Cell Toxicity [1]) is reported as 6.8 µg/mL (≈ 17.6 µM), the MIC (S. pneumoniae 149389) is reported as > 128 µg/mL and the MIC (E. faecium 134529) is reported as 64 µg/mL (≈ 166 µM). The MIC (E. faecalis 161651) was 128 µg/mL (≈ 331 µM), the MIC (E. faecium 145494) was > 128 µg/mL and the MIC (S. epidermidis MRSE 01) was 8 µg/mL (≈ 20.7 µM). For the same compound, the MIC (S. epidermidis 35984) was 64 µg/mL (≈ 166 µM), the MIC (E. faecalis 29212) was 128 µg/mL (≈ 331 µM) and the MIC (S. pneumoniae 49619) was > 128 µg/mL. For the same compound, the MIC (K. pneumoniae UMM) was > 128 µg/mL, the IC50 ([2]; read-out: IC50) was 80 µM and the MIC (K. pneumoniae 700603) was > 128 µg/mL. For the same compound, the MIC (E. coli ESBL 4) was > 128 µg/mL, the MIC [3] was 32 µg/mL (≈ 82.8 µM) and the MIC [4] was 16 µg/mL (≈ 41.4 µM). For the same compound, the MIC [5] was 16 µg/mL (≈ 41.4 µM), the MIC [6] was 128 µg/mL (≈ 331 µM) and the MIC [7] was > 128 µg/mL. For the same compound, the MIC [8] was 32 µg/mL (≈ 82.8 µM), the MIC [9] was 32 µg/mL (≈ 82.8 µM) and the MIC (E. coli 25922) was > 128 µg/mL. The CC50 (Mammalian Cell Toxicity [10]) was 2.3 µg/mL (≈ 5.95 µM).

O=C(O)C(c1ccccc1)N1C(=O)C(=Cc2c[nH]c3ccccc23)SC1=S (stereo not drawn) [Compound 537, [5-(1H-indol-3-ylmethylene)-4-oxo-2-thioxo-1,3-thiazolidin-3-yl](phenyl)acetic acid] gave a CC50 (Mammalian Cell Toxicity [1]) of 38 µg/mL (≈ 96.3 µM), an MIC (S. pneumoniae 149389) of 64 µg/mL (≈ 162 µM) and an MIC (E. faecium 134529) of 128 µg/mL (≈ 324 µM). For the same compound, the MIC (E. faecalis 161651) was 128 µg/mL (≈ 324 µM), the MIC (E. faecium 145494) was > 128 µg/mL and the MIC (S. epidermidis MRSE 01) was 128 µg/mL (≈ 324 µM). The MIC (S. epidermidis 35984) was 128 µg/mL (≈ 324 µM), the MIC (E. faecalis 29212) was 128 µg/mL (≈ 324 µM) and the MIC (S. pneumoniae 49619) was 32 µg/mL (≈ 81.1 µM). The MIC (K. pneumoniae UMM) was > 128 µg/mL, the IC50 [2] was “agonist” and the MIC (K. pneumoniae 700603) was > 128 µg/mL. The MIC (E. coli ESBL 4) was > 128 µg/mL, the MIC [3] was 64 µg/mL (≈ 162 µM) and the MIC [4] was 64 µg/mL (≈ 162 µM). It also gave an MIC [5] of 128 µg/mL (≈ 324 µM), an MIC [6] of 64 µg/mL (≈ 162 µM) and an MIC [7] of 64 µg/mL (≈ 162 µM). The MIC [8] was 64 µg/mL (≈ 162 µM), the MIC [9] was 64 µg/mL (≈ 162 µM) and the MIC (E. coli 25922) was > 128 µg/mL. It also gave a CC50 (Mammalian Cell Toxicity [10]) of 20 to 64 µg/mL (≈ 50.7 to 162 µM).

Compound CN1CCN(c2nc(C=Cc3ccccc3)nc3ccccc23)CC1 [Compound #096, 4-(4-methyl-1-piperazinyl)-2-(2-phenylvinyl)quinazoline] has a CC50 (Mammalian Cell Toxicity [1]) of 62 µg/mL (≈ 188 µM), an MIC (S. pneumoniae 149389) of 64 µg/mL (≈ 194 µM) and an MIC (E. faecium 134529) of 64 µg/mL (≈ 194 µM). It also gave an MIC (E. faecalis 161651) of 128 µg/mL (≈ 387 µM), an MIC (E. faecium 145494) of 128 µg/mL (≈ 387 µM) and an MIC (S. epidermidis MRSE 01) of 128 µg/mL (≈ 387 µM). The MIC (S. epidermidis 35984) was > 128 µg/mL, the MIC (E. faecalis 29212) was 128 µg/mL (≈ 387 µM) and the MIC (S. pneumoniae 49619) was 64 µg/mL (≈ 194 µM). The MIC (K. pneumoniae UMM) was > 128 µg/mL, the IC50 ([2]; read-out: IC50) was 91 µM and the MIC (K. pneumoniae 700603) was > 128 µg/mL. For the same compound, the MIC (E. coli ESBL 4) was > 128 µg/mL, the MIC [3] was > 128 µg/mL and the MIC [4] was 64 µg/mL (≈ 194 µM). The MIC [5] was 32 µg/mL (≈ 96.8 µM), the MIC [6] was 64 µg/mL (≈ 194 µM) and the MIC [7] was 128 µg/mL (≈ 387 µM). The MIC [8] was 128 µg/mL (≈ 387 µM), the MIC [9] was 64 µg/mL (≈ 194 µM) and the MIC (E. coli 25922) was > 128 µg/mL. For the same compound, the CC50 (Mammalian Cell Toxicity [10]) was 51.5 µg/mL (≈ 156 µM).
